# Source: patent US20260200890A1, “ADAR1 INHIBITORS AND METHODS OF USING THE SAME” (AVAMMUNE THERAPEUTICS INC., priority 2022, published 2026)
# Molecular target: T1, ADAR1 (Homo sapiens, UniProt P55265)
# T1 construct: endogenous in cells; host or cells: p110 KO A549 dual cells
# T1 sequence (P55265 1-1226): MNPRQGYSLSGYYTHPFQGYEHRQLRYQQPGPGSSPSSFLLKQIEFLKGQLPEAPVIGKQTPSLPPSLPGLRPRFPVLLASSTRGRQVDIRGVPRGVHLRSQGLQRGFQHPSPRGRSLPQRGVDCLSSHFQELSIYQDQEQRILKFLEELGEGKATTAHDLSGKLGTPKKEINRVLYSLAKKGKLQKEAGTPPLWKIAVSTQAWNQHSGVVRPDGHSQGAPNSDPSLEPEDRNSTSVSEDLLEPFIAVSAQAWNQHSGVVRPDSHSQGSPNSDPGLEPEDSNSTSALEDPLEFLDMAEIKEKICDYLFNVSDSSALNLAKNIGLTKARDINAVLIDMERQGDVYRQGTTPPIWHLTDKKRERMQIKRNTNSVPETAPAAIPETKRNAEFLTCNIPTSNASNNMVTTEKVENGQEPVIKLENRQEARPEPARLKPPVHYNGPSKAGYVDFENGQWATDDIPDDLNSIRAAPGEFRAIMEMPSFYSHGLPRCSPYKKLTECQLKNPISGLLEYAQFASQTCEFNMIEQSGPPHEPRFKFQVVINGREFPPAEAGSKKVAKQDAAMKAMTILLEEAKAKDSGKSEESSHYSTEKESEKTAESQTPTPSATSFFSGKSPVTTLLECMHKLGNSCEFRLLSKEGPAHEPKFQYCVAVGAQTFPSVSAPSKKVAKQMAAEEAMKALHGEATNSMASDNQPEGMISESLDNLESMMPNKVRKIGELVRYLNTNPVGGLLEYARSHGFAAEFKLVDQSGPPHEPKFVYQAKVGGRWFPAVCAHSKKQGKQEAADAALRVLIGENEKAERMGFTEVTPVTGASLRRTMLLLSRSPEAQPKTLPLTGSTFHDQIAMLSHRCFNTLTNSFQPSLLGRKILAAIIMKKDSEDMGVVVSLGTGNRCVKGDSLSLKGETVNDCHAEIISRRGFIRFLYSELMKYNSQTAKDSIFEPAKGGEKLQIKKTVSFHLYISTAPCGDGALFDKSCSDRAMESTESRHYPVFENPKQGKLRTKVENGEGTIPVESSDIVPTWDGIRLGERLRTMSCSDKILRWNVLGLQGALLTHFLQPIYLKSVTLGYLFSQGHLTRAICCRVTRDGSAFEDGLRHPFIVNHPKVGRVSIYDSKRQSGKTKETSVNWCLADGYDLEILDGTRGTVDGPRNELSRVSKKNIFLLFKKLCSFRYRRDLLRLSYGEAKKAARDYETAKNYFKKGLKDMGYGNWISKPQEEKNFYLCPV
# Assay: ADAR1 Inhibition Assay (IFN fold-induction, Quanti-Luc luminescence, p110 KO A549 dual cells)
# Format: cell-based
# Details: IFN fold-induction vs DMSO, 24 and 48 h
# Method: An ADAR1 Inhibition Assay was used to determine the biological activity (EC50) of compounds disclosed herein. 100 μL of p110 KO A549 dual cell suspension in supplemented DMEM (20,000 cells per well) was added into a flat bottom 96 well plate. Next day, post media change, 180 μL of supplemented DMEM was added. 20 μL of test compound or positive control was added to the respective wells (Final concentration of DMSO is 1%). The plate was incubated for 24 and 48 hours at 37° C. in a 5% CO2 incubator. After 24 and 48 h, 20 μL of cell suspension was taken in black well plates and 50 μL of Quanti-Luc was added to each well and luminescence was measured using a microplate reader (Spectra Max). IFN fold-induction was plotted considering DMSO as control using the relative luminescence unit (RLU) values. (Fold induction: Sample RLU/Average DMSO RLU).
row,SMILES,EC50 [µM]
1,CCOC(=O)c1cc(-c2ccc(OC(F)(F)F)cc2)sc1NC(=O)COC(=O)c1cccc(NS(C)(=O)=O)c1 [Compound 100],> 100
2,CCOC(=O)c1cc(-c2ccccc2)sc1NC(=O)COC(=O)c1ccc(NS(C)(=O)=O)cc1 [Compound 101],> 100
3,CCOC(=O)c1cc(-c2ccccc2)sc1NC(=O)COC(=O)c1cccc(NS(=O)(=O)c2ccc(C)cc2)c1 [Compound 102],> 100
4,CCOC(=O)c1cc(-c2ccc(S(C)(=O)=O)cc2)sc1NC(=O)COC(=O)c1cccc(NS(C)(=O)=O)c1 [Compound 103],> 100
5,CCOC(=O)c1c(NC(=O)COC(=O)c2cccc(NS(C)(=O)=O)c2)sc2c1CCN(C)C2 [Compound 104],> 100
6,CCOC(=O)c1cc(-c2ccccc2)sc1NC(=O)CN(c1cccc(CO)c1)S(C)(=O)=O [Compound 105],> 100
7,CCOC(=O)c1cc(-c2ccc(C(F)(F)F)cc2)sc1NC(=O)COC(=O)c1cccc(NS(C)(=O)=O)c1 [Compound 106],> 100
8,CCOC(=O)c1cc(-c2ccccc2)sc1NC(=O)C1CCCN1C(=O)c1cccc(NS(C)(=O)=O)c1 (stereo not shown) [Compound 109],> 100
9,CCOC(=O)c1cc(-c2ccccc2)sc1NC(=O)COC(=O)c1ccccc1NS(C)(=O)=O [Compound 110],> 100
10,CCOC(=O)c1cc(-c2ccccc2)sc1NC(=O)C1CCCN(C(=O)c2cccc(S(N)(=O)=O)c2)C1 (stereo not shown) [Compound 111],> 100
11,CCOC(=O)c1cc(-c2ccccc2)sc1NC(=O)COC(=O)c1cccc(NS(N)(=O)=O)c1 [Compound 112],> 100
12,CCOC(=O)c1ccc(-c2ccccc2)nc1NC(=O)COC(=O)c1cccc(NS(C)(=O)=O)c1 [Compound 113],> 100
13,CCOC(=O)c1cc(-c2cncnc2)sc1NC(=O)COC(=O)c1cccc(NS(N)(=O)=O)c1 [Compound 115],> 100
14,CCOC(=O)c1cc(-c2cccc(F)c2)sc1NC(=O)COC(=O)c1cccc(NS(C)(=O)=O)c1 [Compound 116],> 100
15,CCNC(=O)c1cc(-c2ccccc2)sc1NC(=O)COC(=O)c1cccc(NS(C)(=O)=O)c1 [Compound 117],> 100
16,CCOC(=O)c1cc(-c2ccc(F)cc2)sc1NC(=O)C1CCCN1C(=O)c1cccc(NS(C)(=O)=O)c1 (stereo not shown) [Compound 119],> 100
17,CCOC(=O)c1ccc(-c2ccccc2)cc1NC(=O)COC(=O)c1cccc(NS(C)(=O)=O)c1 [Compound 120],> 100

row,SMILES,EC50 [µM]
1,CCOC(=O)c1cc(-c2ccccc2)sc1NC(=O)CN(C)C(=O)c1cccc(S(N)(=O)=O)c1 [Compound 122],> 100
2,CS(=O)(=O)Nc1cccc(C(=O)OCC(=O)Nc2sc(-c3ccccc3)cc2C(=O)N2CCOCC2)c1 [Compound 123],> 100
3,CCOC(=O)c1cc(-c2ccccc2)sc1NC(=O)COC(=O)c1cccc(NS(=O)(=O)c2ccccc2)c1 [Compound 124],> 100
4,CCOC(=O)c1cc(-c2ccccc2)sc1NC(=O)COC(=O)c1cc(NS(C)(=O)=O)ccc1C [Compound 125],> 100
5,CCOC(=O)c1cc(-c2ccccc2)sc1NC(=O)COC(=O)Cc1cccc(NS(C)(=O)=O)c1 [Compound 126],> 100
6,CCOC(=O)c1cc(-c2ccccc2)sc1NC(=O)COC(=O)c1cc(NS(C)(=O)=O)c(F)cc1F [Compound 128],> 100
7,CCOC(=O)c1cc(-c2ccccc2)sc1NC(=O)COC(=O)c1cc(NS(C)(=O)=O)ccc1F [Compound 129],> 100
8,CCOC(=O)c1cc(-c2ccccc2)sc1NC(=O)COC(=O)c1cccc(NS(=O)(=O)C(C)C)c1 [Compound 131],> 100
9,CCCCS(=O)(=O)Nc1cccc(C(=O)OCC(=O)Nc2sc(-c3ccccc3)cc2C(=O)OCC)c1 [Compound 133],> 100
10,CCOC(=O)c1cc(-c2ccccc2)sc1NC(=O)COC(=O)c1cccc(NS(=O)(=O)CC)c1 [Compound 134],> 100
11,CCOC(=O)c1cc(-c2ccc(N3CCOCC3)cc2)sc1NC(=O)COC(=O)c1cccc(NS(C)(=O)=O)c1 [Compound 135],> 100
12,CCOC(=O)c1cc(-c2ccccc2)sc1NC(=O)COC(=O)c1cccc(NS(=O)(=O)N2CCOCC2)c1 [Compound 136],> 100
13,CCOC(=O)c1cc(-c2ccccc2)sc1CC(=O)C1CCCN1C(=O)c1cccc(C#N)c1 (stereo not shown) [Compound 139],> 100
14,CCOC(=O)c1cc(-c2ccccc2)sc1NC(=O)COC(=O)c1cccc(NS(=O)(=O)N2CCCCC2)c1 [Compound 140],> 100
15,CCOC(=O)c1nc(-c2ccccc2)[nH]c1NC(=O)COC(=O)c1cccc(NS(C)(=O)=O)c1 [Compound 141],> 100
16,CCOC(=O)c1cc(-c2ccccc2)sc1NC(=O)COC(=O)C1CCCN(S(C)(=O)=O)C1 (stereo not shown) [Compound 142],> 100

# Other lines, results leading:
row,EC50 [µM],SMILES
1,≤ 25,CCOC(=O)c1cc(-c2ccc(F)cc2)sc1NC(=O)COC(=O)c1cccc(S(N)(=O)=O)c1 [Compound 75]
2,> 100,CCOC(=O)c1cc(-c2ccccc2)sc1NC(=O)COC(=O)c1cc(S(N)(=O)=O)ccc1C [Compound 76]
3,> 100,CCOC(=O)c1c(NC(=O)COC(=O)c2cccc(S(N)(=O)=O)c2)sc2c1CCC2 [Compound 77]
4,> 100,NS(=O)(=O)c1cccc(C(=O)OCC(=O)Nc2ccc(-c3ccccc3)s2)c1 [Compound 78]
5,> 100,CCOC(=O)c1cc(-c2ccccc2)sc1NC(=O)[C@H](CC)OC(=O)c1cccc(S(N)(=O)=O)c1 [Compound 79]
6,> 100,CCOC(=O)c1cc(-c2ccccc2)sc1NC(=O)[C@H](CC)OC(=O)c1cccc(NS(C)(=O)=O)c1 [Compound 80]
7,> 100,CCOC(=O)c1cc(-c2ccc(C(C)C)cc2)sc1NC(=O)COC(=O)c1cccc(S(N)(=O)=O)c1 [Compound 81]
8,> 100,CCOC(=O)c1cc(-c2ccccc2)sc1NC(=O)COC(=O)c1cccc(OS(C)(=O)=O)c1 [Compound 82]
9,> 100,Cc1cc(C#N)c(NC(=O)COC(=O)c2cccc(S(N)(=O)=O)c2)s1 [Compound 83]
10,> 100,CS(=O)(=O)Oc1cccc(C(=O)OCC(=O)Nc2sc(-c3ccccc3)cc2C(N)=O)c1 [Compound 84]
11,> 100,CS(=O)(=O)Nc1cccc(C(=O)OCC(=O)Nc2sc(-c3ccccc3)cc2C(=O)NC2CC2)c1 [Compound 85]
12,> 100,CCOC(=O)c1c(NC(=O)COC(=O)c2cccc(NS(C)(=O)=O)c2)sc2c1CCC2 [Compound 86]
13,> 100,CCOC(=O)c1cc(-c2ccccc2)sc1NC(=O)c1cccc(C#N)c1 [Compound 88]
14,> 100,CCOC(=O)c1c(NC(=O)COC(=O)c2cccc(NS(C)(=O)=O)c2)sc2c1CCCC2 [Compound 89]
15,> 100,CS(=O)(=O)Nc1cccc(C(=O)OCC(=O)Nc2sccc2C#N)c1 [Compound 90]
16,> 100,CCOC(=O)c1c(NC(=O)COC(=O)c2cccc(C#N)c2)sc2c1CCCC2 [Compound 91]
17,> 100,CCOC(=O)c1cc(-c2ccccc2)sc1NC(=O)COC(=O)c1cccc(NS(=O)(=O)c2ccc(F)cc2)c1 [Compound 93]
18,> 100,CCOC(=O)c1c(-c2ccccc2)csc1NC(=O)COC(=O)c1cccc(NS(C)(=O)=O)c1 [Compound 95]
19,> 100,CCOC(=O)c1cc(-c2ccccc2)sc1NC(=O)COC(=O)c1cccc(C(=O)O)c1 [Compound 96]
20,> 100,CCOC(=O)c1ccsc1NC(=O)COC(=O)c1cccc(NS(C)(=O)=O)c1 [Compound 97]
21,≤ 25,CCOC(=O)c1cc(-c2ccc(F)cc2)sc1NC(=O)COC(=O)c1cccc(NS(C)(=O)=O)c1 [Compound 108]
22,≤ 25,"CCOC(=O)c1cc(-c2ccccc2)sc1NC(=O)C1CCN(C(=O)c2cccc(NS(C)(=O)=O)c2)C1 (stereo not shown) [Compound 138, Ethyl 2-(1-(3-(methylsulfonamido)benzoyl)pyrrolidine-3-carboxamido)-5-phenylthiophene-3-carboxylate]"
